According to patent US4215069A, “Arylthiovinylcyclopropanecarboxylate intermediates” (FMC Corporation, priority 1979, dated 1980):

Legend:
Milkweed bug = assay: 7-day residual contact activity against milkweed bug (percent kill); format: in vivo, Oncopeltus faciatus; settings: Oncopeltus fasciatus, 168 h, treated surface aged seven days in light and air, read-out: Percent Kill MWB, 7-day residual activity
Procedure: (§1) The test compound was dissolved in a small amount of acetone, and the acetone solution was dispersed in water containing one drop of isooctylphenyl polyethoxyethanol to make a solution having 1250 ppm (w/w) active ingredient. Aliquots of this solution were diluted with an appropriate amount of water to provide solutions containing various concentrations of active ingredient. Test organisms and techniques were as follows: the activity against Mexican bean beetle (Epilachna varivestis Muls.) and southern armyworm (Spodoptera eridania [Cram.]) was evaluated by dipping the leaves of pinto bean plants into the test solution and infesting the leaves with the appropriate immature-form insects when the foliage had dried. The activity against the pea aphid (Acyrthosiphon pisum [Harris]) was evaluated on broad bean plants whose leaves were dipped before infestation with adult aphids. The activity against twospotted spider mites (Tetranychus urticae Koch) was evaluated on pinto bean plants whose leaves were dipped after infestation with adult mites. The activity against the milkweed bug (Oncopeltus faciatus [Dallas]) was evaluated by spraying the test solutions into glass dishes or jars containing the adult insects. Following application of the compound and infestation the tests were maintained in a holding room at 80° F. and 50% relative humidity for an exposure period of 72 hours. At the end of this time the dead and living insects or mites were counted and the percent kill was calculated. Results of these tests are summarized in Table I. Most of the compounds tested were active against all the insects.
(§2) The residual contact activity of certain of the compounds was determined on the same organisms using the techniques described above, except that in each case the treated surface was allowed to dry and was exposed to normal light and air for seven days before introduction of the mites or insects. The seven day residual activity was minimal for the mite but substantial against the remaining organisms. Again, the remarkable activity of some of these compounds against milkweed bug and Mexican bean beetle was noted.

[1] = tested on: milkweed bug (Oncopeltus faciatus [Dallas]); assay: Initial contact activity against milkweed bug (percent kill); format: in vivo; settings: 72 hours exposure, read-out: Percent Kill MWB, initial activity
Procedure: as §1

[2] = tested on: twospotted spider mites (Tetranychus urticae Koch); assay: Initial contact activity against twospotted spider mite (percent kill); format: in vivo; settings: 72 hours exposure, read-out: Percent Kill SM, initial activity
Procedure: as §1

[3] = tested on: Mexican bean beetle (Epilachna varivestis Muls.); assay: Initial contact activity against Mexican bean beetle (percent kill); format: in vivo; settings: 72 hours exposure, read-out: Percent Kill MBB, initial activity
Procedure: as §1

Southern armyworm = assay: 7-day residual contact activity against southern armyworm (percent kill); format: in vivo; settings: Spodoptera eridania, 168 h, treated surface aged seven days in light and air, read-out: Percent Kill AW, 7-day residual activity
Procedure: as §1, §2

Mexican bean beetle = assay: 7-day residual contact activity against Mexican bean beetle (percent kill); format: in vivo; settings: Epilachna varivestis, 168 h, treated surface aged seven days in light and air, read-out: Percent Kill MBB, 7-day residual activity
Procedure: as §1, §2

Pea aphid = assay: 7-day residual contact activity against pea aphid (percent kill); format: in vivo; settings: Acyrthosiphon pisum, 168 h, treated surface aged seven days in light and air, read-out: Percent Kill PA, 7-day residual activity
Procedure: as §1, §2

[4] = tested on: pea aphid (Acyrthosiphon pisum [Harris]); assay: Initial contact activity against pea aphid (percent kill); format: in vivo; settings: 72 hours exposure, read-out: Percent Kill PA, initial activity
Procedure: as §1

Twospotted spider mite = assay: 7-day residual contact activity against twospotted spider mite (percent kill); format: in vivo; settings: Tetranychus urticae, 168 h, treated surface aged seven days in light and air, read-out: Percent Kill SM, 7-day residual activity
Procedure: as §1, §2

[5] = tested on: southern armyworm (Spodoptera eridania [Cram.]); assay: Initial contact activity against southern armyworm (percent kill); format: in vivo; settings: 72 hours exposure, read-out: Percent Kill AW, initial activity
Procedure: as §1

| SMILES | activity at 78 ppm (Milkweed bug) | activity at 312 ppm (Milkweed bug) | activity at 1250 ppm (Milkweed bug) | mortality at 20 ppm [1] | mortality at 78 ppm [1] | mortality at 312 ppm [1] | mortality at 1250 ppm [1] | mortality at 20 ppm [2] | mortality at 78 ppm [2] | mortality at 312 ppm [2] | mortality at 1250 ppm [2] | mortality at 1.2 ppm [3] | mortality at 5 ppm [3] | mortality at 20 ppm [3] | mortality at 78 ppm [3] | mortality at 1250 ppm [3] | activity at 20 ppm (Southern armyworm) | activity at 78 ppm (Southern armyworm) | activity at 312 ppm (Southern armyworm) | activity at 1250 ppm (Southern armyworm) | other results |
| --- | --- | --- | --- | --- | --- | --- | --- | --- | --- | --- | --- | --- | --- | --- | --- | --- | --- | --- | --- | --- | --- |
| CC1(C)C(C=C(Cl)Sc2ccccc2)C1C(=O)OC(C#N)c1cccc(Oc2ccccc2)c1 (mixture of isomers) [Example 3, α-cyano-3-phenoxybenzyl cis,trans-3-[2-(E,Z)-chloro-2-phenylthioethenyl]-2,2-dimethylcyclopropanecarboxylate] | 70% | 85% | 100% | 70% | 100% | 100% | 100% | 0% | 0% | 0% | 49% | 80% | 100% | 92% | 92% | 94% | 62% | 56% | 53% | 100% | activity at 2.5 ppm (Mexican bean beetle; 2.5 ppm): 66%; activity at 10 ppm (Mexican bean beetle; 10 ppm): 75%; activity at 39 ppm (Mexican bean beetle; 39 ppm): 100%; activity at 78 ppm (Mexican bean beetle; 78 ppm): 100%; activity at 1250 ppm (Mexican bean beetle; 1250 ppm): 97%; activity at 78 ppm (Pea aphid): 50%; activity at 312 ppm (Pea aphid): 65%; activity at 1250 ppm (Pea aphid): 100%; mortality at 20 ppm [4]: 27%; mortality at 78 ppm [4]: 60%; mortality at 312 ppm [4]: 85%; mortality at 1250 ppm [4]: 100%; activity at 1250 ppm (Twospotted spider mite): 0%; mortality at 1.2 ppm [5]: 0%; mortality at 5 ppm [5]: 0%; mortality at 20 ppm [5]: 0%; mortality at 78 ppm [5]: 75%; mortality at 1250 ppm [5]: 100% |
| CC1(C)C(C=CSc2ccccc2)C1C(=O)OCc1cccc(Oc2ccccc2)c1 (mixture of isomers) [Example 1, 3-phenoxybenzyl cis,trans-3-[2-(E,Z)-phenylthioethenyl]-2,2-dimethylcyclopropanecarboxylate] | 5% | 10% | 0% | 10% | 10% | 5% | 30% | 0% | 0% | 0% | 0% | 44% | 28% | 0% | 62% | 100% | 0% | 0% | 0% | 0% | activity at 78 ppm (Pea aphid): 0%; activity at 312 ppm (Pea aphid): 10%; activity at 1250 ppm (Pea aphid): 30%; mortality at 20 ppm [4]: 0%; mortality at 78 ppm [4]: 0%; mortality at 312 ppm [4]: 0%; mortality at 1250 ppm [4]: 0%; activity at 1250 ppm (Twospotted spider mite): 0%; mortality at 1.2 ppm [5]: 0%; mortality at 5 ppm [5]: 0%; mortality at 20 ppm [5]: 0%; mortality at 78 ppm [5]: 0%; mortality at 1250 ppm [5]: 0% |
| CC1(C)C(C=CSc2ccccc2)C1C(=O)OC(C#N)c1cccc(Oc2ccccc2)c1 (mixture of isomers) [Example 2, α-cyano-3-phenoxybenzyl cis,trans-3-[2-(E,Z)-phenylthioethenyl]-2,2-dimethylcyclopropanecarboxylate] | 5% | 0% | 5% | 0% | 20% | 90% | 100% | 0% | 0% | 0% | 0% | 6% | 0% | 22% | 80% | 100% | 0% | 0% | 0% | 0% | activity at 78 ppm (Pea aphid): 30%; activity at 312 ppm (Pea aphid): 23%; activity at 1250 ppm (Pea aphid): 100%; mortality at 20 ppm [4]: 0%; mortality at 78 ppm [4]: 0%; mortality at 312 ppm [4]: 5%; mortality at 1250 ppm [4]: 75%; activity at 1250 ppm (Twospotted spider mite): 0%; mortality at 1.2 ppm [5]: 0%; mortality at 5 ppm [5]: 0%; mortality at 20 ppm [5]: 0%; mortality at 78 ppm [5]: 0%; mortality at 1250 ppm [5]: 41% |
